Legend:
HL-60 cells [1] = assay: antiproliferation assay, MTT method, absorbance at 590 nm; format: cell-based, human; settings: for dilution rate of the dilution added to the group whose absorbance at 590 nm was less than one-half of that of the control group: 50 mM solution diluted 2- to 128-fold, dilution rate 1 corresponds to 5 mM in the cell culture medium; for IC50: read-out: IC50 (concentration required for 50% proliferation inhibitory rate); for antiproliferation activity against HL-60 cells (in words): preparations and fractions, compared with control to which water was added
RAW264.7 = assay: antiproliferation assay, MTT method; format: cell-based, mouse; settings: for dilution rate of the dilution added to the group whose absorbance at 590 nm was less than one-half of that of the control group: dilution rate 1 corresponds to 5 mM in medium; for IC50: read-out: IC50 (concentration required for 50% proliferation inhibitory rate)
Protocol: (§1) Each fraction was sterilized by filtration and its 10 μl portion was placed in a well of a 96 well microtiter plate. […] The cell morphology was observed under an optical microscope. […] The absorbance at 590 nm was measured to determine a cell proliferation rate. (2) A 50 mM solution of agarobiose, agarotetraose or agarohexaose obtained in Example 3-(1) was sterilized by filtration and diluted 2-, 4-, 8-, 16-, 32-, 64- and 128-folds with sterilized water. […] [table] The number in Table 3 represents the dilution rate of the dilution added to the group whose absorbance at 590 nm was less than one-half of that of the control group to which water was added. […] Then, for agarobiose, agarotetraose and agarohexaose, the concentrations required for 50% proliferation inhibitory rate (IC50) are calculated based on the change in the absorbance at 590 nm, and are shown in Table 4.

MCF7 = assay: antiproliferation assay, MTT method; format: cell-based, human; settings: for dilution rate of the dilution added to the group whose absorbance at 590 nm was less than one-half of that of the control group: dilution rate 1 corresponds to 5 mM in medium; for IC50: read-out: IC50 (concentration required for 50% proliferation inhibitory rate)
Protocol: as §1

A-172 = assay: antiproliferation assay, MTT method; format: cell-based; settings: for dilution rate of the dilution added to the group whose absorbance at 590 nm was less than one-half of that of the control group: dilution rate 1 corresponds to 5 mM in medium; for IC50: read-out: IC50 (concentration required for 50% proliferation inhibitory rate)
Protocol: as §1

HT-1080 = assay: antiproliferation assay, MTT method; format: cell-based; settings: for dilution rate of the dilution added to the group whose absorbance at 590 nm was less than one-half of that of the control group: dilution rate 1 corresponds to 5 mM in medium; for IC50: read-out: IC50 (concentration required for 50% proliferation inhibitory rate)
Protocol: as §1

HL-60 cells [2] = assay: viable cell count with Trypan Blue under a microscope; format: cell-based, human; settings: final concentration 250 μM or 125 μM; for number of viable cells as compared with the group to which water was added: 24 hours or 48 hours
Protocol: Agarobiose, agarotetraose, agarohexaose and agarooctaose (hereinafter, sometimes, these oligosuccharaides are referred to as agarooligosaccharides) obtained in Example 5 were dissolved in water at a concentration of 2.5 mM or 1.25 mM separately, and were sterilized by filtration. HL-60 cells were suspended in RPMI 1640 medium containing 10% fetal bovine serum at a concentration of 2.5×10^5 cells/4.5 ml and to this suspension was added 0.5 ml of each of the oligosaccharide solutions. The resultant mixture were incubated with 5% CO2 at 37° C. for 24 hours or 48 hours. A part of the cell culture was taken up, followed by addition of Trypan Blue thereto and observing under a microscope to count the number of viable cells.
That is, FIG. 14 illustrates the relation between the incubation time and the number of viable cells when HL-60 cells were cultured with addition of one of the oligosaccharides at the final concentration of 250 μM. FIG. 15 illustrates the relation between the incubation time and the number of viable cells when HL-60 cells were cultured with addition of one of the oligosaccharides at the final concentration of 125 μM. In FIGS. 14 and 15, the horizontal axes represent the incubation time (hrs.) and the vertical axes represent the number of viable cells (× 10^5/5 ml). The closed circle (●) represents the addition of water (control), the open diamond (⋄) represents the addition of agarobiose, the open circle (◯) represents the addition of agarotetraose, the open triangle (Δ) represents the addition of agarohexaose and the open square (□) represents the addition of agarooctaose.

[3] = test system: lipid peroxide radical production; assay: inhibition of lipid peroxide radical production (tert-butyl hydroperoxide, bacterial growth readout); format: cell-based, Staphylococcus aureus 3A; set-up: key to growth of the bacterium (activity of inhibiting lipid peroxide radical production): + represents the sample in which the growth of the bacterium was observed; −represents the sample in which the growth of the bacterium was not observed
Protocol: Staphylococcus aureus 3A (National Collection Of Type Culture, NCTC 8319) was inoculated into 5 ml of brain heart infusion medium (manufactured by Difco, 0037-17-8) and cultured at 37° C. overnight. The bacterial cells were collected by centrifugation, washed with phosphate buffered saline 3 times and then suspended in phosphate buffered saline at a concentration of 1×10^7 colony forming units/ml. A mixture of 100 μl of the cell suspension, 100 μl of an aqueous sample solution, 100 μl of aqueous 1 mg/ml methemoglobin (manufactured by Sigma M9250) solution, 600 μl of phosphated buffered saline and 100 μl of aqueous 50 mM tert-butyl hydroperoxide (manufactured by Katayama Kagaku, 03-4990) solution were reacted at 37° C. for 30 minutes. To the reaction mixture was added 1 ml of 2×NMP medium [prepared by dissolving 8 g of nutrient broth (manufactured by Difco, 0003-01-6), 5 g of trypton (manufactured by Difco, 0123-17-3), 5 g of NaCl, 10 g of mannitol (manufactured by Nacalai Tesque, 213-03) and 0.035 g of phenol red (manufactured by Nacalai Tesque, 268-07) in distilled water to make the volume up to 500 ml. The pH was adjusted to 7.5 with NaOH and then the mixture was sterilized by filtration] to stop the reaction. The resultant mixture was diluted every 3-folds with NMP medium (prepared by diluting 2×NMP medium 2-folds with sterilized water) to prepare 12 serial dilutions and 160 μl of each dilution was placed in each well of a 96-well microtiter plate. The plate was incubated at 37° C. overnight.
In Table 14, + represents the sample in which the growth of the bacterium was observed, and −represents the sample in which the growth of the bacterium was not observed. The concentration shown in the uppermost line of the table is that of the sample in the reaction mixture in which the sample was reacted with tert-butyl hydroperoxide and the bacterial cells at 37° C. for 30 minutes.

iNOS = iNOS expression by western blotting and RT-PCR; format: cell-based; settings: protein level by western blotting, messenger RNA level by RT-PCR
Protocol: The confirmation was carried out at protein level by western blotting and at messenger RNA level by RT-PCR. That is, the compounds used in the present invention are useful for treating and preventing diseases that require inhibition of NO production by inhibiting expression of iNOS which is overexpressed by various factors to produce excess NO.

[4] = reaction with L-cysteine or L-lysine in phosphate buffered saline at 37° C., thin layer chromatography; format: physicochemical
Protocol: (2) Agarobiose and agarohexaose obtained in Example 14-(1) were dissolved in water to prepare 100 mM aqueous solutions thereof. To each 25 μl of these solutions was added 50 μl of 100 mM aqueous L-cysteine solution, followed by addition of 925 μl of phosphate buffered saline. Then, the mixture was treated at 37° C. for 1 hour or 16 hours. The same reaction was repeated except that an aqueous solution containing the same concentration of L-lysine was used instead of the aqueous L-cysteine solution.
1 μl of a sample from each reaction was spotted on a silica gel sheet 60 F254, developed with 1-butanol:ethanol:water=5:5:1 and detected by orcinol-sulfate method.

[5] = HL-60, after reaction with L-cysteine at 37° C. for 1 hour
[6] = HL-60, after reaction with L-cysteine at 37° C. for 16 hours
[7] = HL-60, after reaction with L-lysine at 37° C. for 16 hours
[8] = 0.1 mM sample in the reaction mixture
[9] = 1 mM sample in the reaction mixture

IC50 (HL-60 cells [1]; HL-60)	IC50 (MCF7)	IC50 (HT-1080)	spot of the saccharide on thin layer chromatography after reaction ([4]; L-cysteine, 1 hour)	Compound	dilution rate of the dilution added to the group whose absorbance at 590 nm was less than one-half of that of the control group (HL-60 cells [1]; HL-60)	antiproliferation activity relative to the same concentration of the unreacted saccharide (HL-60 cells [1]; [5])	antiproliferation activity relative to the same concentration of the unreacted saccharide (HL-60 cells [1]; [6])	antiproliferation activity relative to the same concentration of the unreacted saccharide (HL-60 cells [1]; [7])	dilution rate of the dilution added to the group whose absorbance at 590 nm was less than one-half of that of the control group (RAW264.7)	IC50 (RAW264.7)	dilution rate of the dilution added to the group whose absorbance at 590 nm was less than one-half of that of the control group (MCF7)	dilution rate of the dilution added to the group whose absorbance at 590 nm was less than one-half of that of the control group (A-172)	IC50 (A-172)	dilution rate of the dilution added to the group whose absorbance at 590 nm was less than one-half of that of the control group (HT-1080)	apoptosis corpuscles (HL-60 cells [2])	number of viable cells as compared with the group to which water was added (HL-60 cells [2])	activity of inhibiting lipid peroxide radical production (in words) [3]	growth of the bacterium (activity of inhibiting lipid peroxide radical production) [3, 8]	growth of the bacterium (activity of inhibiting lipid peroxide radical production) [3, 9]	inhibition of iNOS expression (iNOS)	further results
170 µM	274 µM	317 µM	disappeared	OC[C@H]1O[C@@H](O[C@H]2[C@H]3OC[C@@H]2OC(O)[C@H]3O)[C@H](O)[C@@H](O)[C@H]1O (mixture of isomers) [Agarobiose, agarobiose]	32	1/10	1/10	1/10	16	179 µM	16	16	289 µM	8	apoptosis corpuscles were observed	decreased	strong activity	+	+	inhibit this iNOS expression	cell proliferation suppressed as compared with the control group (HL-60 cells [1]; HL-60, agarobiose at 78 μg/ml, 48 hours): about 86%; antiproliferation activity against HL-60 cells (in words) (HL-60 cells [1]; listed as group 4): an antiproliferation activity was observed; antiproliferation activity against HL-60 cells (in words) (HL-60 cells [1]; listed as group 5): an antiproliferation activity was observed; antiproliferation activity against HL-60 cells (in words) (HL-60 cells [1]; listed as peak at the elution time 8.87 min.): had both activities; antiproliferation activity against HL-60 cells (in words) (HL-60 cells [1]; listed as peak at the elution time 9.40 min.): had both activities; spot of the saccharide on thin layer chromatography after reaction ([4]; L-cysteine, 16 hours): disappeared; spot of the saccharide on thin layer chromatography after reaction ([4]; L-lysine, 16 hours): disappeared
97 µM	276 µM	216 µM	disappeared	OC[C@H]1O[C@@H](O[C@H]2[C@H]3OC[C@@H]2O[C@@H](O[C@H]2[C@@H](O)[C@@H](CO)O[C@@H](O[C@H]4[C@H]5OC[C@@H]4OC(O)[C@H]5O)[C@@H]2O)[C@H]3O)[C@H](O)[C@@H](O)[C@H]1O (stereo partly shown) [Agarotetraose, agarotetraose]	64	1/10	1/10	1/10	32	133 µM	16	16	185 µM	16	apoptosis corpuscles were observed	decreased	strong activity	−	+	inhibit this iNOS expression	spot of the saccharide on thin layer chromatography after reaction ([4]; L-cysteine, 16 hours): disappeared; spot of the saccharide on thin layer chromatography after reaction ([4]; L-lysine, 16 hours): disappeared
